Laboratory results from patent US20050019746A1, “Apoptosis-related kinase/GPCRs” (EiRx Therapeutics Limited, priority 2003, published 2005).

Key:
DU145, PC3, HCT116 cells = assay: Annexin V apoptosis assay (Guava Nexin); type: cell-based, human; details: DU145, HCT116 or PC3, siRNA 50 nM, relative to mock transfected, FIG. 34
Description: Apoptosis or programmed cell death is an important and active regulatory pathway of cell growth and proliferation. Cells respond to specific induction signals by initiating intracellular processes that result in characteristic physiological changes. Among these are externalisation of phosphotidylserine (PS) to the cell surface, cleavage and degradation of specific cellular proteins, compaction and fragmentation of nuclear chromatin and loss of membrane integrity (in late stages). Annexin V is a calcium-dependant phospholipid binding protein with a high affinity for phosphotidyl serine (PS), a membrane component normally localised to the internal face of the cell membrane. Early in the apoptotic pathway molecules of PS are translocated to the outer surface of the cell membrane where Annexin V can readily bind to them.
Annexin V assays are performed using the Guava Nexin Assay, which utilises Annexin V-PE to detect PS on the external membrane of apoptotic cells. The cell impermeant dye 7-AAD is included in the assay as an indicator of membrane structural integrity as it is excluded from live and early apoptotic cells but permeates late stage apoptotic and dead cells. Assays are performed using a Guava Technologies Personal Cytometer and Guava Nexin Kit (catalogue no. 4500-0010, Guava Technologies Inc) using a modification of the manufacturer's protocol, where cells are transfected with siRNA in 24-well plates and assays performed at 24, 48 and 72 hours post-transfection.
Cells (DU145, PC3 & HCT116) are plated at a density of 20000 cells/well in 500 μl medium in 24-well plates and incubated overnight at 37° C. in a humidified atmosphere containing 5% CO2. […]
The 500 μl of media is decanted from the cells and combined with 150 μl of PBS used to wash them. […] Then, 450 μl 1× Nexin Buffer is added to the cells and the cell population analysed using the Guava Personal Cytometer following the manufacturer's instructions. […] The total number of early and late apoptotic cells is measured and the relative number of apoptotic cells calculated. […]

U251 cells = assay: Anchorage Independence/Soft Agar Assay, U251; type: cell-based, human; details: soft agar, experiment n = 1
Experimental: The Anchorage Independence/Soft Agar Assay allows assessment of the influence of modulation of gene expression on clonal tumouroid formation by observing and quantifying tumouroid morphology and colony number over an extended period of logarithmic growth thereby ascertaining any cell death is induced.
Cells are seeded into a 6-well plate and allowed to adhere overnight at 37° C. in a humidified atmosphere containing 5% CO2 in air. Cells are next transfected with siRNA Oligomers, at a concentration of 2 μg, against the genes of interest. Transfections continued for 4 hrs after which the transfection solution is removed and cells are refed with fresh medium and allowed incubate overnight. Transfected cells are next harvested for seeding into soft agar assay as described below. […] Colonies formed are subsequently stained with Crystal Violet, their morphology is assessed and colonies formed are enumerated at a 4× magnification.
The cytotoxic effect of each gene is determined by a reduction in colony number compared to our MS control, but any influence on the morphology of the colony is also noted.
Examples of genes with a cytotoxic effect on knockdown as detected by the soft agar assay are outlined in Table 14. […]

Substance	apoptosis by Annexin V staining (DU145, PC3, HCT116 cells)	PERCENTAGE SURVIVAL RELATIVE TO MS, U251, n = 1 (U251 cells)
siRNA ROCK: siRNA duplex, sense UACAUGCCUGGUGGAGAUCtt, antisense GAUCUCCACCAGGCAUGUAtt; same in Tables 9 and 11 (sense UACAUGCCUGGUGGAGAUCTT; antisense GAUCUCCACCAGGCAUGUATT; chemistry not given here)	undergo apoptosis	
siRNA NTKL: siRNA duplex, sense UGUGGAGCUGAUGAAGCACtt, antisense GUGCUUCAUCAGCUCCACAtt; same in Tables 9 and 11 (sense UGUGGAGCUGAUGAAGCACTT; antisense GUGCUUCAUCAGCUCCACATT; chemistry not given here)	undergo apoptosis	
siRNA MPSK1: sense GGGUUAUGCCCACAGAGACtt, antisense GUCUCUGUGGGCAUAACCCtt (sense GGGUUAUGCCCACAGAGACTT; antisense GUCUCUGUGGGCAUAACCCTT; chemistry not given here)		18%
siRNA EKI: siRNA duplex, sense GCACUGGAUCCAAAGCAUGtt, antisense CAUGCUUUGGAUCCAGUGCtt; same in Tables 9 and 11 (sense GCACUGGAUCCAAAGCAUGTT; antisense CAUGCUUUGGAUCCAGUGCTT; chemistry not given here)	undergo apoptosis	
